Reference: PubChem BioAssay AID1963972 (Molecular Pharmacology Branch, DTP, NCI, 2024)
Values joined by “and” are separate entries in the source; they are usually repeats but may differ in a detail not shown here. Equal entries are not always repeated.

System: 945468-187-T-J2-PDC spheroids viability
Experiment: Anticancer human tumor 945468-187-T-J2-PDC patient-derived rectal carcinoma cell line growth inhibition [PI3K]
Settings: spheroids with HUVEC and MSC; for viability, T/C: stronger effect = lower value
From the text: Combinatorial screen of targeted agents with the PI3K inhibitors inavolisib, alpelisib, duvelisib, and copanlisib in multi-cell type tumor spheroids
A high-throughput screen of multi-cell type tumor spheroids was designed to identify active combinations of targeted small molecules and PI3K pathway inhibitors. Complex spheroids include a stromal component modeled by human endothelial cells (HUVEC) and fibroblasts modeled by human mesenchymal stem cells (MSCs). The concentration ranges selected for each drug and investigational agent were based upon clinically achievable concentrations if the clinical Cmax of the agent was known.
Compounds. The drugs and investigational agents: inavolisib (NSC800729), alpelisib (NSC765974), duvelisib (NSC772469), copanlisib (NSC816437), ipatasertib (NSC767898), afuresertib (NSC778305), talazoparib (NSC767125), sapanisertib (NSC764658), selumetinib (NSC741078), tovorafenib (DAY101, NSC766906), vemurafenib (NSC761431), ravoxertinib (NSC781343), sotorasib (NSC818433), MRTX1133 (NSC 836407), abemaciclib (NSC 768073), palbociclib (NSC758247), venetoclax (NSC 766270), SY5609 (NSC837396), enzalutamide (NSC755605), and darolutamide (NSC825331), were obtained from the National Cancer Institute (NCI) Developmental Therapeutics Program Chemical Repository. The FDA-approved anticancer drug set is available from the NCI Developmental Therapeutics Program. […] The stock solutions were prepared in dimethyl sulfoxide (DMSO, Sigma-Aldrich, St. Louis, MO, cat. D2650) at 800-fold the tested concentration and stored at -70 degrees C prior to their use. All drugs and investigational agents were tested over a range starting from a high concentration at or near the clinical Cmax and decreasing in half-log increments. If the clinical Cmax for an agent had not been determined, the highest concentration tested was 10 microM.
Cell Culture. All cells were maintained in an incubator at 37 degrees C and 5% CO2 with 95% humidity. The PDC lines were cultured according to standard operating procedures established by the NCI PDMR (https://pdmr.cancer.gov/sops/default.htm). All PDCs were thawed and cultured in Matrigel-coated flasks prepared with a working solution of 1X Ham's F-12 nutrient mix, without supplementation (Invitrogen, Waltham, MA, cat. 11765054), 100 U/mL penicillin-streptomycin (Invitrogen, cat. 15140122), and 2.5% Matrigel (Corning Inc., Corning, NY, cat. 354248) for the first three passages. The 354836-022-R-J1-PDC, 475296-252-R-J1-PDC, and 997726-040-R-J2-PDC lines were cultured in 6A media, which includes advanced DMEM/F-12 (Thermo Fisher Scientific, cat. 12634028), 10 mM HEPES (Thermo Fisher Scientific, cat. 15630080), 1X GlutaMAX supplement (Thermo Fisher Scientific, cat. 35050061), 0.1 mg/mL primocin (InvivoGen, San Diego, CA, cat. ant-pm-2), 10% defined fetal bovine serum, heat inactivated (HyClone Laboratories Inc., Logan, UT, cat. SH30070.03HI), 50% L-WRN conditioned media (ATCC, cat. CRL-3276), 1.25 mM N-Acetyl-L-cysteine (Sigma-Aldrich, cat. A9165), 10 mM nicotinamide (Sigma-Aldrich, cat. N0636), 1X B-27 supplement (Thermo Fisher Scientific, cat. 17504044), 1X N-2 supplement (Thermo Fisher Scientific, cat. 17502048), and 10 microM Y-27632 dihydrochloride (Tocris Bioscience, Bristol, United Kingdom, cat. 1254). The 624824-186-R-J2-PDC line was cultured in 6C/Colon 1B media, which includes all 6A media components plus 50 ng/mL human EGF recombinant protein (Thermo Fisher Scientific, cat. PHG0311). […]
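Note: spheroids exposed to compounds for seven days before reading.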

`CC(=O)c1c(C)c2cnc(Nc3ccc(N4CCNCC4)cn3)nc2n(C2CCCC2)c1=O` + CC(Nc1ccc2c(c1)OCCn1cc(N3C(=O)OCC3C(F)F)nc1-2)C(N)=O showed an IC50 (curve of first compound, second compound 0.00316 µM) of over 100 nM, an IC50 (curve of first compound, second compound 0.01 µM) of over 100 nM and an IC50 (curve of first compound, second compound 0.0316 µM) of over 100 nM. The IC50 (curve of first compound, second compound 0.1 µM) was over 100 nM, the IC50 (curve of first compound, second compound 0.316 µM) was over 100 nM and the IC50 (curve of first compound, second compound 1 µM) was over 100 nM. The viability, T/C (second compound 0.00316 µM, first compound 0.000316 µM) was 91.5%, the viability, T/C (second compound 0.00316 µM, first compound 0.001 µM) was 98.4% and the viability, T/C (second compound 0.00316 µM, first compound 0.00316 µM) was 73.9%. For the same molecule, the viability, T/C (second compound 0.00316 µM, first compound 0.01 µM) was 114%, the viability, T/C (second compound 0.00316 µM, first compound 0.0316 µM) was 129% and the viability, T/C (second compound 0.00316 µM, first compound 0.1 µM) was 128%. It also gave a viability, T/C (second compound 0.01 µM, first compound 0.000316 µM) of 73.9%, a viability, T/C (second compound 0.01 µM, first compound 0.001 µM) of 109% and a viability, T/C (second compound 0.01 µM, first compound 0.00316 µM) of 127%. For the same molecule, the viability, T/C (second compound 0.01 µM, first compound 0.01 µM) was 83.5%, the viability, T/C (second compound 0.01 µM, first compound 0.0316 µM) was 92.8% and the viability, T/C (second compound 0.01 µM, first compound 0.1 µM) was 114%. For the same molecule, the viability, T/C (second compound 0.0316 µM, first compound 0.000316 µM) was 91%, the viability, T/C (second compound 0.0316 µM, first compound 0.001 µM) was 101% and the viability, T/C (second compound 0.0316 µM, first compound 0.00316 µM) was 101%. It also gave a viability, T/C (second compound 0.0316 µM, first compound 0.01 µM) of 87.3%, a viability, T/C (second compound 0.0316 µM, first compound 0.0316 µM) of 86.2% and a viability, T/C (second compound 0.0316 µM, first compound 0.1 µM) of 105%. It also gave a viability, T/C (second compound 0.1 µM, first compound 0.000316 µM) of 92.5%, a viability, T/C (second compound 0.1 µM, first compound 0.001 µM) of 144% and a viability, T/C (second compound 0.1 µM, first compound 0.00316 µM) of 84.2%. It also gave a viability, T/C (second compound 0.1 µM, first compound 0.01 µM) of 101%, a viability, T/C (second compound 0.1 µM, first compound 0.0316 µM) of 107% and a viability, T/C (second compound 0.1 µM, first compound 0.1 µM) of 100%. The viability, T/C (second compound 0.316 µM, first compound 0.000316 µM) was 81.3%, the viability, T/C (second compound 0.316 µM, first compound 0.001 µM) was 87% and the viability, T/C (second compound 0.316 µM, first compound 0.00316 µM) was 79%. For the same molecule, the viability, T/C (second compound 0.316 µM, first compound 0.01 µM) was 78.1%, the viability, T/C (second compound 0.316 µM, first compound 0.0316 µM) was 85.3% and the viability, T/C (second compound 0.316 µM, first compound 0.1 µM) was 73.1%. For the same molecule, the viability, T/C (second compound 1 µM, first compound 0.000316 µM) was 90.3%, the viability, T/C (second compound 1 µM, first compound 0.001 µM) was 74.5% and the viability, T/C (second compound 1 µM, first compound 0.00316 µM) was 70.8%. The viability, T/C (second compound 1 µM, first compound 0.01 µM) was 72%, the viability, T/C (second compound 1 µM, first compound 0.0316 µM) was 71.2% and the viability, T/C (second compound 1 µM, first compound 0.1 µM) was 81.4%.

With `CC(=O)c1c(C)c2cnc(Nc3ccc(N4CCNCC4)cn3)nc2n(C2CCCC2)c1=O` the viability, T/C (compound 0.000316 µM) was 105% [middle of 4 runs], the viability, T/C (compound 0.00316 µM) was 90.6% [middle of 4 runs] and the viability, T/C (compound 0.01 µM) was 104% [middle of 4 runs]. For the same molecule, the IC50 (curve of compound) was over 100 nM.

`C#Cc1c(F)ccc2cc(O)cc(-c3ncc4c(N5CC6CCC(C5)N6)nc(OCC56CCCN5CC(F)C6)nc4c3F)c12` (stereo unspecified) was tested, and the viability, T/C (compound 0.0316 µM) was 109% [middle of 4 runs], the viability, T/C (compound 0.316 µM) was 106% (2×) and 90.2% and 116% and the IC50 (curve of compound) was over 10000 nM.

With `CC(Cn1ccc(-c2ccc(C#N)c(Cl)c2)n1)NC(=O)c1cc(C(C)O)[nH]n1` (stereo unspecified) the viability, T/C (compound 3.16 µM) was 93.7% [middle of 4 runs] and the IC50 (curve of compound) was over 10000 nM.
